Reference: PubChem BioAssay (NCI)
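Where inhibition never reached the appropriate level, the endpoint shown equals the highest concentration tested. Otherwise, values were interpolated linearly from a five-concentration, 48-hour dose response in 96-well plates. GI50 is the concentration that inhibits growth by half. Definition used: TGI = concentration required for complete inhibition of growth.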

What was measured:
Test in all cases: DTP human tumour cell line panel, 48 h
COLO 205 colon = tested on: COLO 205 colon
HOP-92 NSCLC = tested on: HOP-92 NSCLC
KM12 colon = tested on: KM12 colon
TK-10 renal = tested on: TK-10 renal
PC-3 prostate = tested on: PC-3 prostate
NCI-H23 lung = tested on: NCI-H23 lung
OVCAR-4 ovarian = tested on: OVCAR-4 ovarian
HL-60(TB) leukemia = tested on: HL-60(TB) leukemia
OVCAR-8 ovarian = tested on: OVCAR-8 ovarian
SK-MEL-2 melanoma = tested on: SK-MEL-2 melanoma

SMILES | TGI (COLO 205 colon) | TGI (HOP-92 NSCLC) | TGI (KM12 colon) | TGI (TK-10 renal) | TGI (PC-3 prostate) | TGI (NCI-H23 lung) | TGI (OVCAR-4 ovarian) | TGI (HL-60(TB) leukemia) [µM] | TGI (OVCAR-8 ovarian) | GI50 (COLO 205 colon) | GI50 (HOP-92 NSCLC) | GI50 (KM12 colon) | GI50 (TK-10 renal) | GI50 (PC-3 prostate) | GI50 (NCI-H23 lung) | GI50 (OVCAR-4 ovarian) | GI50 (OVCAR-8 ovarian) | GI50 (HL-60(TB) leukemia) [µM] | GI50 (SK-MEL-2 melanoma) | TGI (SK-MEL-2 melanoma)
NC(=O)C(NC=O)c1ccccc1 (configuration not stated) | > 100 µM | > 100 µM | > 100 µM | > 100 µM | > 100 µM | > 100 µM | > 100 µM | > 100 | > 100 µM | – | – | – | – | – | – | – | – | – | – | –
C=C(C)[C@@H]1CCC2=C[C@@H](OC2=O)[C@@H](C(=C)C)C(=O)/C=C(/C)C(=O)C1 | 56.8 µM | 58.2 µM | 63.7 µM | 90.9 µM | 39.3 µM | 60.4 µM | > 100 µM | – | > 100 µM | 26.3 µM | 17.4 µM | 24.8 µM | 31.3 µM | 8.79 µM | 22.6 µM | 71.6 µM | 49 µM | – | – | –
COc1cccc(C2NC(=S)NC(C)=C2C(=O)Nc2ccc(F)c(Cl)c2)c1 (configuration not stated) | > 50 µM | > 50 µM | > 50 µM | > 50 µM | > 50 µM | 47.7 µM | – | > 50 | > 50 µM | 27.2 µM | > 50 µM | 18.2 µM | 30.1 µM | 23.2 µM | 18.5 µM | – | 34.6 µM | 17.4 | 29.3 µM | > 50 µM
CC1=C(c2cc(C(=O)Nc3ccc(Cl)c(Cl)c3)nc(N)n2)Sc2ccccc2N1 | > 100 µM | > 100 µM | > 100 µM | > 100 µM | – | > 100 µM | > 100 µM | > 100 | > 100 µM | – | – | – | – | – | – | – | – | – | – | > 100 µM
CC[O-].Cc1ccc2cccc([O-])c2n1.Cc1ccc2cccc([O-])c2n1.Cc1ccc2cccc([O-])c2n1.[Ti+4] | 39.8 µM | > 100 µM | 74.8 µM | > 83.9 µM | – | > 100 µM | > 68.3 µM | 16 | 47.1 µM | 19.5 µM | > 100 µM | 20.9 µM | 44.2 µM | – | > 63.5 µM | 25 µM | 12.4 µM | 3.3 | 22.9 µM | > 57.5 µM
C=C1Oc2nc3ccccc3c(=O)n2C1(C)C | > 100 µM | > 100 µM | > 10 µM | > 100 µM | – | > 100 µM | > 100 µM | > 100 | > 100 µM | – | – | – | – | – | – | – | – | – | – | > 100 µM
O=C(O)CCC1(Br)CCCCC(Br)C1=O (configuration not stated) | > 100 µM | > 100 µM | – | > 100 µM | – | > 100 µM | > 100 µM | > 100 | > 100 µM | – | – | – | – | – | – | – | – | – | – | > 100 µM
CN(c1ccccc1)C1C(=O)N(c2ccccc2)C1/C=C/c1ccccc1 (configuration not stated) | > 100 µM | > 100 µM | > 100 µM | > 100 µM | – | > 100 µM | – | > 100 | > 100 µM | – | – | – | – | – | – | – | – | – | – | > 100 µM
CC(=O)OCC1OC(OC2=C(CC=C(Cl)Cl)C(=O)c3ccccc3C2=O)C(OC(C)=O)C(OC(C)=O)C1OC(C)=O (configuration not stated) | 36.3 µM | 1.59 µM | 10.1 µM | 21.5 µM | 11.5 µM | 36.8 µM | – | – | 8.29 µM | 13.6 µM | 0.222 µM | 3.26 µM | 9.61 µM | 2.66 µM | 13.2 µM | – | 2.96 µM | – | 3.33 µM | 9.25 µM
CNC(C)C(=O)N[C@H](C(=O)N1CCC[C@@H]1CN(CCc1ccccc1)C(=O)C(F)(F)F)[C@H](C)OCC#CC#CCO[C@H](C)[C@H](NC(=O)[C@H](C)NC)C(=O)N1CCC[C@H]1CN(CCc1ccccc1)C(=O)C(F)(F)F (some centres not stated) | 2.99 µM | 1.61 µM | 3.25 µM | 3.8 µM | 3.23 µM | 2.68 µM | – | – | 2.19 µM | 1.42 µM | 0.373 µM | 1.71 µM | 2.22 µM | 1.72 µM | 1.16 µM | – | 0.67 µM | – | < 0.01 µM | 1.41 µM
NCC1OC(OC2C(CO)OC(OC3C(O)C(N)CC(N)C3OC3OC(CO)C(O)C(O)C3N)C2O)C(N)C(O)C1O (configuration not stated) | > 50 µg/mL | > 50 µg/mL | > 50 µg/mL | > 50 µg/mL | > 50 µg/mL | > 50 µg/mL | > 50 µg/mL | – | > 50 µg/mL | > 50 µg/mL | > 50 µg/mL | > 50 µg/mL | > 50 µg/mL | > 50 µg/mL | > 50 µg/mL | > 50 µg/mL | > 50 µg/mL | – | > 50 µg/mL | > 50 µg/mL
CC(=O)OC1CCC2(C)C(=CCC3C2CCC2(C)C(C(C)C(=O)O)CCC32)C1 (configuration not stated) | > 100 µM | > 100 µM | > 100 µM | > 100 µM | > 100 µM | > 100 µM | > 100 µM | – | > 100 µM | – | – | – | – | – | – | – | – | – | – | > 100 µM
O=C(O)C#CCO | > 100 µM | > 100 µM | > 100 µM | > 100 µM | – | > 100 µM | > 100 µM | > 100 | > 100 µM | – | – | – | – | – | – | – | – | – | – | > 100 µM
Cc1ccccc1N=Nc1c(O)[nH]c2ccccc12 | > 100 µM | – | > 100 µM | > 100 µM | > 100 µM | > 100 µM | > 100 µM | > 100 | > 100 µM | – | – | – | – | – | – | – | – | – | – | > 100 µM
CCc1c(Cl)nc(Cl)nc1Cl | 0.284 µM | 3 µM | 4.16 µM | 4.77 µM | 4.06 µM | 2.06 µM | – | 0.674 | 44.4 µM | – | – | – | – | – | – | – | – | – | – | –
CC1=C([Se]CC(OC(=O)[C@@H](CO)NC(=O)OC(C)(C)C)C(=O)NC(C)(C)C)C(=O)c2ccccc2C1=O (some centres not stated) | 3.3 µM | 3.43 µM | 2.89 µM | 3.44 µM | 2.85 µM | 3.2 µM | 2.49 µM | 3.81 | – | 1.83 µM | 1.88 µM | 1.5 µM | 1.98 µM | 1.35 µM | 1.49 µM | 1.23 µM | – | 0.87 | 2.2 µM | 4.57 µM
COC(=O)C1CCC(Nc2cccc(C(F)(F)F)c2)=N1 (configuration not stated) | > 100 µM | > 100 µM | > 100 µM | > 100 µM | – | > 100 µM | > 100 µM | > 100 | > 100 µM | – | – | – | – | – | – | – | – | – | – | > 100 µM
